Tests used:
Pfeiffer cells = assay: Cell proliferation test (Cell counting kit-8, 6 days); assay type: cell-based; conditions: Pfeiffer (CRL-2632) cells, culture for 6 days, viable cells by Cell counting kit-8
Experimental: The used cell lines Pfeiffer (CRL-2632), suDHL-6 (CRL-2959) and suDHL-10 (CRL-2963) were purchased from American Type Culture Collection (ATCC). All cell lines were cultured in RPMI-1640 medium (Gibco) containing 10% fetal bovine serum (Gibco). The cultured cells were collected by centrifugation and the cell density was measured on a CounterStar counter. Appropriate number of cells were then seeded in a 96-well culture plate and incubated overnight. Compounds to be tested were diluted by 8 gradient points in a ratio of 1:3 and added into the corresponding wells. After continuing to culture for 6 days, the number of viable cells was measured with Cell counting kit-8, and the absorbance value was read on Tecan infinite pro. The IC50 was calculated by fitting a four-parameter model in the XLfit software.

EZH2 Y641F = EZH2 Y641F (Homo sapiens (Human), UniProt Q15910, Y641F); assay: In vitro methyltransferase activity test (LANCE Ultra); assay type: biochemical; conditions: Recombinant PRC2 (EZH2-Y641F), 2.5 μM SAM/250 nM H3(1-50)K27me1, 3 hours, room temperature
Sequence of EZH2 Y641F (Q15910 whole entry Y641F): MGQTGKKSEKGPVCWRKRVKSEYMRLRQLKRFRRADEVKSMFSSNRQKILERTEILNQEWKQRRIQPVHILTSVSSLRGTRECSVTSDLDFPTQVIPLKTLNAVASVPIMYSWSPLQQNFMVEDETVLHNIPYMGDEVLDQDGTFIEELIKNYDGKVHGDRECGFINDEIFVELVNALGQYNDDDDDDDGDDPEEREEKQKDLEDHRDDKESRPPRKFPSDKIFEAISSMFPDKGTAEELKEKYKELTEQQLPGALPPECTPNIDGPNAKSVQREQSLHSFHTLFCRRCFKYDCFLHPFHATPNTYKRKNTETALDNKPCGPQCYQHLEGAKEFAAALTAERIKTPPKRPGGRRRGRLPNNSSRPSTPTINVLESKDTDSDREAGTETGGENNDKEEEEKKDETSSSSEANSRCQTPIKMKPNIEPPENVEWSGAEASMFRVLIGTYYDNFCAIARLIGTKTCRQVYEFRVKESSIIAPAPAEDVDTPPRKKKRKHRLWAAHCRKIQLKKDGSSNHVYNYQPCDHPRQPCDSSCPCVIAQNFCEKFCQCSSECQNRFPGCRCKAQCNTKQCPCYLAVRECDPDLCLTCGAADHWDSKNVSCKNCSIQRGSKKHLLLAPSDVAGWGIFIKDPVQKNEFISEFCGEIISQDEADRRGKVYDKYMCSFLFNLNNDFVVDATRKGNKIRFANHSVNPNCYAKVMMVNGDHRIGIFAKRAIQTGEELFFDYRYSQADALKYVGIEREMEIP
Sequence of EZH2 Y641F (O75530 whole entry partner): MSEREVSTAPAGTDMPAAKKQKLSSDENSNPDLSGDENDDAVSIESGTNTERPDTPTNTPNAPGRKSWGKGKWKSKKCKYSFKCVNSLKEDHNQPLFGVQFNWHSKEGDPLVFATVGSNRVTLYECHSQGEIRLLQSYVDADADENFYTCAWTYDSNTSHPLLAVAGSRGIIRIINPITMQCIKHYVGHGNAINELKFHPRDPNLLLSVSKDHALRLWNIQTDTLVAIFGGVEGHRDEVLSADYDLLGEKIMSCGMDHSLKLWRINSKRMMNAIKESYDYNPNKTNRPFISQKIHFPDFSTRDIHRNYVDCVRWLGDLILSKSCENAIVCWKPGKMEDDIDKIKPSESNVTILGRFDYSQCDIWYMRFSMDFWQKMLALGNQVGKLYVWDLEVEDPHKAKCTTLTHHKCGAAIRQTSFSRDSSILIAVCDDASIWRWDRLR
Sequence of EZH2 Y641F (Q15022 whole entry partner): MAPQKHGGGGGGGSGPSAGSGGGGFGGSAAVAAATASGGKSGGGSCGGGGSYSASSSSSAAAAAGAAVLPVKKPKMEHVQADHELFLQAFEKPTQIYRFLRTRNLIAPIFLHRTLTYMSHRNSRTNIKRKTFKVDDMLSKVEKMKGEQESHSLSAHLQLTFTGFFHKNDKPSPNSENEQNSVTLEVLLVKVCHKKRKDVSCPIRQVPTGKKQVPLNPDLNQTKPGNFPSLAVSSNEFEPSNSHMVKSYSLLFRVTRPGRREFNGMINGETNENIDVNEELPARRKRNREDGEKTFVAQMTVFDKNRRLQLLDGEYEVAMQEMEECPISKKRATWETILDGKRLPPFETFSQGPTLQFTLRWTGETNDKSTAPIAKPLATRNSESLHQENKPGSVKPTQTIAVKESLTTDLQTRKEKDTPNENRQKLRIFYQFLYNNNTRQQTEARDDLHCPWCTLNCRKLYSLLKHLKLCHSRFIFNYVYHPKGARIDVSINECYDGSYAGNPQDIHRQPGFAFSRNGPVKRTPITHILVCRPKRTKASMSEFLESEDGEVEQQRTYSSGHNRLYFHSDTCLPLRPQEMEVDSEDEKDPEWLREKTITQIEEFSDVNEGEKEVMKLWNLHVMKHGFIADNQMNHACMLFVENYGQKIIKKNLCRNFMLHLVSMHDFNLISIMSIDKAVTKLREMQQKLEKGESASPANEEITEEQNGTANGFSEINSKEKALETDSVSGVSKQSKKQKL
Sequence of EZH2 Y641F (Q09028 whole entry partner): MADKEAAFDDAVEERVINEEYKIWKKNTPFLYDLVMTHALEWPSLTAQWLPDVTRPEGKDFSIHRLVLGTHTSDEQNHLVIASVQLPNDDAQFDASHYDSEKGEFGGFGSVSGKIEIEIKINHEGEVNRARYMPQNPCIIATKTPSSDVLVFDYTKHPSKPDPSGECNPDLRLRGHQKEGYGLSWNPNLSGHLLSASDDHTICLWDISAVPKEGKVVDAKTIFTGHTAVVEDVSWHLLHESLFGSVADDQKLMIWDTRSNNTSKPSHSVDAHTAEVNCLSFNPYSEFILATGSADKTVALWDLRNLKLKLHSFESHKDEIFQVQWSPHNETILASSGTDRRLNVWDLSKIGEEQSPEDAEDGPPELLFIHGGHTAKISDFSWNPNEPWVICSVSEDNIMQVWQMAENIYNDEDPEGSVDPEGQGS
Sequence of EZH2 Y641F (Q6ZN18 whole entry partner): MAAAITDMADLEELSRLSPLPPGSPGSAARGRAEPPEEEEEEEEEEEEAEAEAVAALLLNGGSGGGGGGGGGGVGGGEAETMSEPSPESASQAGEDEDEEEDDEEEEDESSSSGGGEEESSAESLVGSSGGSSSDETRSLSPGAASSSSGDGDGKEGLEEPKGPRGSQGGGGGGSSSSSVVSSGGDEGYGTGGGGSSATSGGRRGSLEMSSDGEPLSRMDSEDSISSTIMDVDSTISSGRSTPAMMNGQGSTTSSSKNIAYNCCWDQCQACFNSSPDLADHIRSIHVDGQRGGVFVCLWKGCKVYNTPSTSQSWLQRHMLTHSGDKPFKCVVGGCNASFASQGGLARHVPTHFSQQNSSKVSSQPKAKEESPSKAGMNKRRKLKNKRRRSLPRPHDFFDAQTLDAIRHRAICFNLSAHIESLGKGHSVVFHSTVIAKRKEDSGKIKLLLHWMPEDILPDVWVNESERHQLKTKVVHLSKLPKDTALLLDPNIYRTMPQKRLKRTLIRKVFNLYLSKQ
Experimental: The detection system uses LANCEUltra system (Perkinelmer company). […] And then a buffer [20 mM Tris pH8.5, 2 mM MgCl2, 0.01% Tween-20, 1 mM TCEP] containing 2.5 μM SAM/250 nM H3 (1-50)K27me1 premixtures was added, thus the enzyme reaction was started at room temperature. After reacting for 3 hours, a test solution premixed with PLL, detection antibody and Ulight was added, and reacted for 1h at room temperature, then the fluorescence value was read on a Tecan infinite pro. IC50 was calculated by fitting a four-factor model in the XLfit software.

Structure (SMILES)	IC50 (EZH2 Y641F)	IC50 (Pfeiffer cells)	IC50 (Pfeiffer cells; Homo sapiens, 144 h)
C=CCC1(S(=O)(=O)n2cc(C)c3c(C(=O)NCc4c(OC)cc(C)[nH]c4=O)cc(-c4ccc(N)nc4)cc32)CC1 [Compound G-36]	16 nM	85 nM	
C=CCC1(S(=O)(=O)N2CC(C)c3c(C(=O)NCc4c(C)cc(C)[nH]c4=O)cc(-c4ccc(N5CCN(C)CC5)nc4)cc32)CC1 (centres unmarked) [Compound G-77]	147 nM	1530 nM	
C=CCC1(S(=O)(=O)n2cc(C)c3c(C(=O)NCc4c(C)cc(C)[nH]c4=O)cc(-c4ccc(CN(C)C)cc4)cc32)CC1 [Compound G-4]	22 nM		
C=CCC1(S(=O)(=O)n2cc(C)c3c(C(=O)NCc4c(C)cc(C)[nH]c4=O)cc(-c4cnc(N5CCNCC5)nc4)cc32)CC1 [Compound G-65]	17 nM	171 nM	
C=CCC1(S(=O)(=O)n2cc(C)c3c(C(=O)NCc4c(C)cc(C)[nH]c4=O)cc(-c4ccc(N)nc4)cc32)CC1 [Compound G-9]	35 nM	450 nM	
C=CCC1(S(=O)(=O)n2cc(C)c3c(C(=O)NCc4c(C)cc(C)[nH]c4=O)cc(-c4ccc(CN(C)C)cc4)cc32)CC1 [Compound G-6]	19 nM	352 nM	
Cc1cc(C)c(CNC(=O)c2cc(-c3ccc(N4CCN(C)CC4)nc3)cc3c2CCN3S(=O)(=O)C(C)C)c(=O)[nH]1 [Compound G-47, N-((4,6-dimethyl-2-oxo-1,2-dihydropyridin-3-yl)methyl)-1-(isopropylsulfonyl)-6-(6-(4-methylpiperazin-1-yl)pyridin-3-yl)dihydroindole-4-carboxamide]	160 nM	2040 nM	
C=CCC1(S(=O)(=O)N2CCc3c(C(=O)NCc4c(C)cc(C)[nH]c4=O)cc(-c4ccc(N5CCN(C)CC5)nc4)cc32)CC1 [Compound G-76]	460 nM	2590 nM	
C=CCC1(S(=O)(=O)n2cc(C)c3c(C(=O)NCc4c(C)cc(C)[nH]c4=O)cc(-c4ccc(F)c(CN(C)C)c4)cc32)CC1 [Compound G-21]	37 nM		
C=CCC1(S(=O)(=O)n2cc(C)c3c(C(=O)NCc4c(OC)cc(C)[nH]c4=O)cc(-c4cnc(N5CCN(C(C)C)CC5)nc4)cc32)CC1 [Compound G-67]	7 nM		22 nM
C=CCC1(S(=O)(=O)n2cc(C)c3c(C(=O)NCc4c(OC)cc(C)[nH]c4=O)cc(-c4ccc(CN(C)C)cc4)cc32)CC1 [Compound G-32]	8 nM	79 nM	
C#CCCS(=O)(=O)n1cc(C)c2c(C(=O)NCc3c(OC)cc(C)[nH]c3=O)cc(-c3ccc(N4CCN(C)CC4)nc3)cc21 [Compound G-81]	196 nM	3800 nM	
C=CCC1(S(=O)(=O)n2nc(C)c3c(C(=O)NCc4c(C)cc(C)[nH]c4=O)cc(-c4ccc(N5CCN(C)CC5)nc4)cc32)CC1 [Compound G-79]	585 nM	2820 nM	
C=CCC1(S(=O)(=O)N2CC(C)c3c(C(=O)NCc4c(C)cc(C)[nH]c4=O)cc(-c4ccc(CN(C)C)cc4)cc32)CC1 (centres unmarked) [Compound G-75]	280 nM	1840 nM	
C=CCC1(S(=O)(=O)n2cc(C)c3c(C(=O)NCc4c(C)cc(C)[nH]c4=O)cc(-c4ccc(OCCCN(C)C)cc4)cc32)CC1 [Compound G-11]	32 nM		
C=CCC1(S(=O)(=O)n2cc(C)c3c(C(=O)NCc4c(C)cc(C)[nH]c4=O)cc(-c4cnc(N5CCN(C)CC5)nc4)cc32)CC1 [Compound G-13]	13 nM	75 nM	

More lines, in order of falling IC50 (EZH2 Y641F), values ahead:

IC50 (EZH2 Y641F)	Structure (SMILES)	IC50 (Pfeiffer cells)	IC50 (Pfeiffer cells; Homo sapiens, 144 h)
1420 nM	C=CCC1(S(=O)(=O)n2nc(C(F)F)c3c(C(=O)NCc4c(C)cc(C)[nH]c4=O)cc(-c4ccc(N5CCN(C)CC5)nc4)cc32)CC1 [Compound G-78]	2520 nM	
58 nM	C=CCC1(S(=O)(=O)n2cc(C)c3c(C(=O)NCc4c(C)cc(C)[nH]c4=O)cc(-c4ccc(N5CCOCC5)nc4)cc32)CC1 [Compound G-12]	485 nM	
42 nM	C=CCC1(S(=O)(=O)n2cc(C)c3c(C(=O)NCc4c(C)cc(C)[nH]c4=O)cc(-c4ccc(CN(C)C)cc4F)cc32)CC1 [Compound G-18]	368 nM	
41 nM	C=CCC1(S(=O)(=O)n2cc(C)c3c(C(=O)NCc4c(C)cc(C)[nH]c4=O)cc(-c4ccc(C#N)nc4)cc32)CC1 [Compound G-10]		
40 nM	C=CCC1(S(=O)(=O)n2cc(C)c3c(C(=O)NCc4c(C)cc(C)[nH]c4=O)cc(-c4ccc(N(C)C)nc4)cc32)CC1 [Compound G-8]	327 nM	
34 nM	C=CCC1(S(=O)(=O)n2cc(C)c3c(C(=O)NCc4c(OC(F)F)cc(C)[nH]c4=O)cc(-c4ccc(N5CCN(C)CC5)nc4)cc32)CC1 [Compound G-68]	152 nM	
33 nM	C=CCC1(S(=O)(=O)n2cc(C)c3c(C(=O)NCc4c(C)cc(C)[nH]c4=O)cc(-c4cccnc4)cc32)CC1 [Compound G-7]	380 nM	
32 nM	C=CCC1(S(=O)(=O)n2cc(C)c3c(C(=O)NCc4c(C)cc(C)[nH]c4=O)cc(-c4cnc(N5CC(F)C5)nc4)cc32)CC1 [Compound G-24]	60 nM	
28 nM	C=CCC1(S(=O)(=O)n2cc(C)c3c(C(=O)NCc4c(C)cc(C)[nH]c4=O)cc(-c4ccc(CCN5CCOCC5)nc4)cc32)CC1 [Compound G-3]	300 nM	
28 nM	C=CCC1(S(=O)(=O)n2cc(C)c3c(C(=O)NCc4c(C)cc(C)[nH]c4=O)cc(-c4ccc(N5CCN(C(C)C)CC5)nc4)cc32)CC1 [Compound G-48, 1-(1-allylcyclopropylsulfonyl)-N-((4,6-dimethyl-2-oxo-1,2-dihydropyridin-3-yl)methyl)-6-(6-(4-isopropylpiperazin-1-yl)pyridin-3-yl)-3-methyl-1H-indole-4-carboxamide]		211 nM
26 nM	C=CCC1(S(=O)(=O)n2cc(C)c3c(C(=O)NCc4c(OC)cc(C)[nH]c4=O)cc(N4CCN(C)CC4)cc32)CC1 [Compound G-69]		
25 nM	C=CCC1(S(=O)(=O)n2cc(C)c3c(C(=O)NCc4c(C)cc(C)[nH]c4=O)cc(-c4ccc(CN(C)C)cc4F)cc32)CC1 [Compound G-15]	219 nM	
23 nM	C=CCC1(S(=O)(=O)n2cc(C)c3c(C(=O)NCc4c(C)cc(C)[nH]c4=O)cc(-c4ccc(CN(C)C)c(F)c4)cc32)CC1 [Compound G-16]	335 nM	
17 nM	C=CCC1(S(=O)(=O)n2cc(C)c3c(C(=O)NCc4c(C)cc(C)[nH]c4=O)cc(-c4ccc(OCCN(C)C)cc4)cc32)CC1 [Compound G-5]	429 nM	
9 nM	C=CCC1(S(=O)(=O)n2cc(C)c3c(C(=O)NCc4c(OC)cc(C)[nH]c4=O)cc(-c4cnc(N5CC(F)C5)nc4)cc32)CC1 [Compound G-30]	97 nM	
5 nM	C=CCC1(S(=O)(=O)n2cc(OC)c3c(C(=O)NCc4c(C)cc(C)[nH]c4=O)cc(-c4ccc(N5CCN(C)CC5)nc4)cc32)CC1 [Compound G-14]	27 nM	
